Experiment [1] relates to Triticum aestivum variety “AC Harvest”. Nature of the experiment: Growth chamber trial, post-emergence spray application, grain yield at full maturity. As to conditions: single active ingredient, dose rate 10 g ai/ha; for change in vivo at 10 g/ha / response vs control in vivo at 10 g/ha: Triticum aestivum, post-emergence; for change in vivo at 10 g/ha: grain yield difference, read-out: Difference (%) vs. UTC; for response vs control in vivo at 10 g/ha: grain yield relative to UTC (100.0); for Grain Yield, g/plant: spray at BBCH 56-61, slightly reduced water, average of five replicates. The class given is in vivo.

The test system of experiment [2] is Triiticum aestivum seeds (TRZAS). Nature of the experiment: Seed treatment trial, grain yield. The class given is in vivo, Triticum aestivum. The conditions noted are these: for Difference (%) vs. UTC: grain yield difference; for Relative, %: grain yield relative to UTC (100.0).
The mark [3] stands for this setting: single active ingredient, 1 g ai/kg seed.

The record followed here is patent US9949485B2, “Use of acylsulfonamides for improving plant yield” (BAYER CROPSCIENCE AG, priority 2013, dated 2018).

For `CN/C(=N\[N+](=O)[O-])NCc1cnc(Cl)s1` [Clothianidin (I-3), clothianidin], in experiment [1], the change in vivo at 10 g/ha is 12.3% and the response vs control in vivo at 10 g/ha is 112%.
On to `CNC(=O)Nc1ccc(S(=O)(=O)NC(=O)c2ccccc2OC)cc1` [Compound (A1), N-(2-methoxybenzoyl)-4-[(methylaminocarbonyl)amino]benzenesulfonamide], for which the “Grain Yield, g/plant” value in experiment [2] (dose rate 0.5 g ai/kg seed) stood at 1.90 g/plant. In experiment [2] (0.5 g ai/kg seed), the “Difference (%) vs. UTC” value is given as “+5.6%” and the “Relative, %” value is recorded as 105.6%. In experiment [2] (setting [3]), the “Difference (%) vs. UTC” value is on record as “+3.9%” and the “Relative, %” value was 103.9%. In experiment [2] (single active ingredient, dose rate 1 g ai/kg seed), the “Grain Yield, g/plant” value is on record as 1.87 g/plant. In experiment [1], the change in vivo at 10 g/ha is 12.3%; the response vs control in vivo at 10 g/ha worked out at 112%; the “Grain Yield, g/plant” value is listed as 1.19 g/plant.
For the molecule `CC1COC(Cn2cncn2)(c2ccc(Oc3ccc(Cl)cc3)cc2Cl)O1` (centres unmarked) [Difenoconazole (F-105), difenoconazole], in experiment [1], the change in vivo at 10 g/ha is -3.8% and the response vs control in vivo at 10 g/ha was found to be 96.2%.
With `N#Cc1nn(-c2c(Cl)cc(C(F)(F)F)cc2Cl)c(N)c1[S+]([O-])C(F)(F)F` (centres unmarked) [Fipronil (I-8), fipronil], in experiment [1], the change in vivo at 10 g/ha stood at 12.3% and the response vs control in vivo at 10 g/ha turned out to be 112%.
The matching figures for `O=[N+]([O-])NC1=NCCN1Cc1ccc(Cl)nc1` [Imidacloprid (I-11), imidacloprid]: 7.5% and 108%.
The like results for `OC(Cc1ccccc1Cl)(Cn1nc[nH]c1=S)C1(Cl)CC1` (centres unmarked) [Prothioconazole (F-124), prothioconazole] were, in that order, -3.8% and 96.2%.
`COC(=O)N(OC)c1ccccc1COc1ccn(-c2ccc(Cl)cc2)n1` [Pyraclostrobin (F-57), pyraclostrobin]: in experiment [1], the change in vivo at 10 g/ha turned out to be 17% and the response vs control in vivo at 10 g/ha turned out to be 117%.
Regarding `CN1COCN(Cc2cnc(Cl)s2)/C1=N\[N+](=O)[O-]` [Thiamethoxam (I-19), thiamethoxam], in experiment [1], the change in vivo at 10 g/ha was found to be 22.6%; the response vs control in vivo at 10 g/ha was 123%; the “Grain Yield, g/plant” value is listed as 1.30 g/plant.
Consider `CON=C(C(=O)OC)c1ccccc1CON=C(C)c1cccc(C(F)(F)F)c1` [Trifloxystrobin (F-60), trifloxystrobin], for which, in experiment [1], the change in vivo at 10 g/ha is 5.7% and the response vs control in vivo at 10 g/ha is 106%.
